Test results reported in patent publication US20160296529A1, “AMINOTRIAZOLOPYRIDINE FOR USE IN THE TREATMENT OF INFLAMMATION, AND PHARMACEUTICAL COMPOSITIONS THEREOF” (priority 2012, published 2016).
Blank lines part the entries; values can stand above or below the molecule they belong to.

Key:
[1] = Single dose pharmacokinetics in animals, dog; type: in vivo, Beagle dogs
Procedure: (§1) Pharmacokinetic studies were performed in various animal species dosed with the compound according to Formula II to determine the exposure to the compound according to Formula I as well as its apparent terminal half life (T1/2), when possible.
(§2) Sprague-Dawley rats (male, 200-250 g), CD1 mice (male, 25-30 g), Beagle dogs (male, 9-10 kg), Göttingen minipigs (male, 10-15 kg) and New Zealand White rabbits (male, 3-5 kg) were acclimatized for at least 7 days before treatment and were kept on a 12 hr light/dark cycle (07 h00-19 h00).
Temperature was maintained at approximately 22° C., and food and water were provided ad libitum. […]
(§3) The compound according to Formula II was formulated in 0.5% methylcellulose and dosed orally to 3 animals (or 3 mouse/time points) as a single esophageal gavage at dose ranging from 15 to 45 mg/kg under a dosing volume of 5 or 10 mL/kg.
(§4) Blood samples were collected over a 24-h period via the jugular vein (dog, minipig), ear blood vessel (rabbit), cardiac puncture (mouse) or retro-orbital sinus (rat) with lithium heparin as anti-coagulant. Whole blood samples were centrifuged and the resulting plasma samples were stored at −20° C. pending analysis.
(§5) Plasma concentrations of the compound according to Formula I and of the compound according to Formula II were determined by an LC-MS/MS method with a limit of quantification ≦10.0 ng/mL for both Formula I and Formula II for all species.
(§6) Pharmacokinetic parameters were calculated using a statistical analysis package (WinNonLin (Pharsight, Sunnyvale, Calif.: CA 94086, USA).

hepatocytes of human = assay: In vitro metabolism study in hepatocytes, human; type: in vitro ADME; conditions: human hepatocyte suspension, 24 h incubation of 100 μM [14C]-Formula II
Procedure: Hepatocyte stability (Concentrations of the compound according to Formula II and its main metabolites (as % of total radioactivity) after 24 h incubation of 100 μM [^14C]-Compound according to Formula II in hepatocyte suspension of different species)

[2] = Single dose pharmacokinetics in animals, rat; type: in vivo, Sprague-Dawley rats
Procedure: Pharmacokinetic studies were performed in various animal species dosed with the compound according to Formula II to determine the exposure to the compound according to Formula I as well as its apparent terminal half life (T1/2), when possible. […]
(§7) Temperature was maintained at approximately 22° C., and food and water were provided ad libitum.
The compound according to […] was formulated in 0.5% methylcellulose and dosed orally to 3 or 6 animals as a single esophageal gavage at dose ranging from 15 to 180 mg/kg under a dosing volume of 5 or 10 mL/kg.
as §3, §4, §5, §6

rat CIA model = assay: CIA model 1 (rat collagen induced arthritis, clinical score); type: in vivo, Dark Agouti rats; design: key to Rat CIA Clinical Score: sum of 4 paws, each 0 = no symptoms to 4 = maximal; max 16; conditions: for activity in the CIA rat model: dosed alone
Procedure: Complete Freund's adjuvant (CFA) and Incomplete Freund's adjuvant (IFA) were purchased from Difco. Bovine collagen type II (CII), lipopolysaccharide (LPS), and Enbrel® was obtained from Chondrex (Isle d'Abeau, France); Sigma (P4252, L'Isle d'Abeau, France), Whyett (25 mg injectable syringe, France), Acros Organics (Palo Alto, Calif.), respectively. All other reagents used were of reagent grade and all solvents were of analytical grade.
Dark Agouti rats (male, 7-8 weeks old) were obtained from Harlan Laboratories (Melderslo, Netherlands). Rats were kept on a 12 hr light/dark cycle (0700-1900). Temperature was maintained at 22° C., and food and water were provided ad libitum.
One day before the experiment, CII solution (2 mg/mL) was prepared with 0.05 M acetic acid and stored at 4° C. Just before the immunization, equal volumes of adjuvant (IFA) and CII were mixed by a homogenizer in a pre-cooled glass bottle in an ice water bath. Extra adjuvant and prolonged homogenization may be required if an emulsion was not formed. 0.2 mL of the emulsion was injected intradermally at the base of the tail of each rat on day 1, a second booster intradermal injection (CII solution at 2 mg/mL in CFA 0.1 mL saline) was performed on day 9. This immunization method was modified from published methods (Sims et al, 2004; Jou et al., 2005).
The therapeutic effects of the compounds were tested in the rat CIA model. Rats were randomly divided into equal groups and each group contained 10 rats. All rats were immunized on day 1 and boosted on day 9. Therapeutic dosing lasts from day 16 to day 30. The negative control group was treated with vehicle (MC 0.5%) and the positive control group with Enbrel® (10 mg/kg, 3× week., s.c.). A compound of interest was typically tested at 3 doses, e.g. 6, 10, 60 mg/kg, q.d., p.o.
Arthritis was scored according to the method of Khachigian 2006, Lin et al 2007 and Nishida et al. 2004). The swelling of each of the four paws was ranked with the arthritic score as follows: 0—no symptoms; 1—mild, but definite redness and swelling of one type of joint such as the ankle or wrist, or apparent redness and swelling limited to individual digits, regardless of the number of affected digits; 2—moderate redness and swelling of two or more types of joints; 3—severe redness and swelling of the entire paw including digits; 4—maximally inflamed limb with involvement of multiple joints (maximum cumulative clinical arthritis score 16 per animal) (Nishida et al., 2004).
To permit the meta-analysis of multiple studies the clinical score values were normalised as follows:
AUC of clinical score (AUC score): The area under the curve (AUC) from day 1 to day 14 was calculated for each individual rat. The AUC of each animal was divided by the average AUC obtained for the vehicle in the study from which the data on that animal was obtained and multiplied by 100 (i.e. the AUC was expressed as a percentage of the average vehicle AUC per study).
Clinical score increase from day 1 to day 14 (End point score): The clinical score difference for each animal was divided by the average clinical score difference obtained for the vehicle in the study from which the data on that animal was obtained and multiplied by 100 (i.e. the difference was expressed as a percentage of the average clinical score difference for the vehicle per study).

[3] = Single dose pharmacokinetics in animals, mouse; type: in vivo, CD1 mice; conditions: for AUC: read-out: exposure (expressed as AUC)
Procedure: as §1, §2, §7, §3, §4, §5, §6

[4] = male, Beagle, plasma, after Formula II 15 mg/kg oral, read-out: exposure (expressed as AUC)
[5] = male, Sprague-Dawley, plasma, after Formula II 45 mg/kg oral, read-out: exposure (expressed as AUC)
[6] = male, CD1, plasma, after Formula II 30 mg/kg oral

- half-life ([1]; Beagle, plasma, 10 mg/kg, male, administration of Formula I, oral, read-out: Apparent terminal half life (converted)): 9 h
- AUC ([1]; Beagle, plasma, male, Formula I 10 mg/kg single oral dose, read-out: AUC): 49400 ng·h/mL
- AUC ([1]; Beagle, plasma, male, Formula I 25 mg/kg single oral dose, read-out: AUC): 114000 ng·h/mL
- AUC ([1]; Beagle, plasma, male, Formula I 50 mg/kg single oral dose, read-out: AUC): 290000 ng·h/mL
- Ratio I/II of exposure (AUC Formula I : AUC Formula II) ([1]; after Formula II 15 mg/kg oral): 0.24
- AUC [1, 4]: 10600 ng·h/mL
- In vitro metabolic profile of Formula II (as % of total radioactivity) (hepatocytes of human): 11%
- In vitro metabolic profile of Formula II (as % of total radioactivity) (hepatocytes of human; listed as drawing 11): 11.2%
- half-life ([2]; Sprague-Dawley, plasma, 20 mg/kg, administration of Formula I, oral, read-out: Apparent terminal half life (converted)): 7 h
- AUC ([2]; Sprague-Dawley, plasma, female, Formula I 20 mg/kg single oral dose, read-out: AUC): 25200 ng·h/mL
- AUC ([2]; Sprague-Dawley, plasma, female, Formula I 60 mg/kg single oral dose, read-out: AUC): 123000 ng·h/mL
- AUC ([2]; Sprague-Dawley, plasma, female, Formula I 180 mg/kg single oral dose, read-out: AUC): 541000 ng·h/mL
- AUC ([2]; Sprague-Dawley, plasma, male, Formula I 20 mg/kg single oral dose, read-out: AUC): 19700 ng·h/mL
- AUC ([2]; Sprague-Dawley, plasma, male, Formula I 60 mg/kg single oral dose, read-out: AUC): 102000 ng·h/mL
- AUC ([2]; Sprague-Dawley, plasma, male, Formula I 180 mg/kg single oral dose, read-out: AUC): 376000 ng·h/mL
- Ratio I/II of exposure (AUC Formula I : AUC Formula II) ([2]; after Formula II 45 mg/kg oral): 0.40
- AUC [2, 5]: 13300 ng·h/mL
- Ratio I/II of exposure (AUC Formula I : AUC Formula II) ([3]; after Formula II 30 mg/kg oral): 1.56
- AUC [3, 6]: 11400 ng·h/mL
- half-life ([3]; male, CD1, plasma, oral, upon administration of Formula II, read-out: apparent terminal elimination half-life (converted)): 2.1 h
SMILES: Nc1nc2cccc(-c3ccc(CN4CCS(=O)(=O)CC4)cc3)n2n1 [Formula I, 5-[4-(1,1-Dioxothiomorpholin-4-ylmethyl)-phenyl]-[1,2,4]triazolo[1,5-a]pyridin-2-ylamine]
- normalized clinical score values (calculated as AUC or as the difference from day 1 to day 14) (rat CIA model; 60 mg/kg): statistically significant improvements
- Rat CIA Clinical Score (rat CIA model; Formula I 60 mg/kg, day 18): 2.9
- Rat CIA Clinical Score (rat CIA model; Formula I 60 mg/kg, day 19): 4.4
- Rat CIA Clinical Score (rat CIA model; Formula I 60 mg/kg, day 20): 5.0
- Rat CIA Clinical Score (rat CIA model; Formula I 60 mg/kg, day 21): 3.9
- Rat CIA Clinical Score (rat CIA model; Formula I 60 mg/kg, day 24): 4.5
- Rat CIA Clinical Score (rat CIA model; Formula I 60 mg/kg, day 25): 4.3
- Rat CIA Clinical Score (rat CIA model; Formula I 60 mg/kg, day 26): 3.8
- Rat CIA Clinical Score (rat CIA model; Formula I 60 mg/kg, day 27): 3.7
- Rat CIA Clinical Score (rat CIA model; Formula I 60 mg/kg, day 28): 3.3
- activity in the CIA rat model (rat CIA model): active

- AUC [1, 4]: 44900 ng·h/mL
- In vitro metabolic profile of Formula II (as % of total radioactivity) (hepatocytes of human): at least 80%
- In vitro metabolic profile of Formula II (as % of total radioactivity) (hepatocytes of human; listed as drawing 10): 88%
- AUC [2, 5]: 33300 ng·h/mL
- AUC [3, 6]: 7300 ng·h/mL
SMILES: O=C(Nc1nc2cccc(-c3ccc(CN4CCS(=O)(=O)CC4)cc3)n2n1)C1CC1 [Formula II, Cyclopropanecarboxylic acid {5-[4-(1,1-dioxo-thiomorpholin-4-ylmethyl)-phenyl]-[1,2,4]triazolo[1,5-a]pyridin-2-yl}-amide]
- Rat CIA Clinical Score (rat CIA model; Formula II 6 mg/kg, day 18): 3.0
- Rat CIA Clinical Score (rat CIA model; Formula II 6 mg/kg, day 19): 3.6
- Rat CIA Clinical Score (rat CIA model; Formula II 6 mg/kg, day 20): 4.2
- Rat CIA Clinical Score (rat CIA model; Formula II 6 mg/kg, day 21): 5.1
- Rat CIA Clinical Score (rat CIA model; Formula II 6 mg/kg, day 24): 5.2
- Rat CIA Clinical Score (rat CIA model; Formula II 6 mg/kg, day 25): 5.1
- Rat CIA Clinical Score (rat CIA model; Formula II 6 mg/kg, day 26): 4.9
- Rat CIA Clinical Score (rat CIA model; Formula II 6 mg/kg, day 27): 5.2
- Rat CIA Clinical Score (rat CIA model; Formula II 6 mg/kg, day 28): 5.4
- activity in the CIA rat model (rat CIA model): active
